Changes are numbered by the printed parent chain.

The target in experiment [1] is T1, VLCAD (Mus musculus, UniProt P50544).
T1 sequence (P50544 42-656): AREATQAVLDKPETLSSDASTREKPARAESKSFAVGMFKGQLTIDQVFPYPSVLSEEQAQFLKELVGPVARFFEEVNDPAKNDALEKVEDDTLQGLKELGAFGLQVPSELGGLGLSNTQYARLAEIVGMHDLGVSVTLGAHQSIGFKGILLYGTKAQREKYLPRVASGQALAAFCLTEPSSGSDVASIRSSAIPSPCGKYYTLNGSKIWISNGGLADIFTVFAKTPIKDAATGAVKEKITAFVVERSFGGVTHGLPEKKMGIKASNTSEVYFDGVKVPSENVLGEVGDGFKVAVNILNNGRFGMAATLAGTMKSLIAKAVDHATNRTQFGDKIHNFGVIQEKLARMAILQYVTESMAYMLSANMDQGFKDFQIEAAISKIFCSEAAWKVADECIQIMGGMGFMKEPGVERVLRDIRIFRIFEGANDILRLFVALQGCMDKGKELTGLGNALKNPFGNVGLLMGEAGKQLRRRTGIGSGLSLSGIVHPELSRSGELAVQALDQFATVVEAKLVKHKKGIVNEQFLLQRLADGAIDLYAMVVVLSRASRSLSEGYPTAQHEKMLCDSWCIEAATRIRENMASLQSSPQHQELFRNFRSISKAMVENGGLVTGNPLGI
Description: Fraction of S-nitrosylated VLCAD in liver of ob/ob mice (organomercury resin capture). Format: in vivo. Particulars: treated ob/ob mice. From the text: These findings confirm the MS/MS analysis showing S-nitrosylation of VLCAD in wild-type and GSNO-treated mouse liver but not in PBS-treated ob/ob mouse liver (FIG. 3C). […] This substantial increase in catalytic efficiency can provide efficient removal of fatty acids in ob/ob mouse liver.

The target in experiment [2] is T2, C238A VLCAD mutant (Mus musculus, UniProt P50544, C238A).
T2 construct: 3xFLAG (C); mutant made in house by QuikChange) Ex-Mm01013-M14; host or cells: Hepa 1 to 6 cells (mouse hepatocytes)
T2 sequence (P50544 42-656 C238A): T1 sequence (P50544 42-656) with C197A
Kind of experiment: Hepa 1 to 6 cells expressing FLAG-tagged C238A VLCAD. It is filed as cell-based. The settings on record: same experimental conditions. The source says:
The QuikChange® Lightning Site-Directed Mutagenesis Kit (Agilent Technologies) was used to introduce single amino acid mutations in complementary DNA encoding VLCAD. A cysteine-to-alanine mutant at amino acid position 238 was generated with Ex-Mm01013-M14 (hereinafter referred to as pVLCAD-3×FLAG®), a plasmid encoding mouse VLCAD fused to three FLAG® tags in the C-terminal region of the protein (GeneCopoeia), as a template. The forward primer 5′-[…]-3′ (SEQ ID NO: 1) and the reverse primer 5′-[…] […]-3′ (SEQ ID NO: 2) were used to substitute an alanine codon for a cysteine codon in pVLCAD-3×FLAG®, thereby generating pVLCAD-C238A-3×FLAG®. The sequence of both pVLCAD-3×FLAG® and pVLCAD-C238A-3×FLAG® was verified before use in subsequent experiments.
Hepa 1 to 6 cells were grown in Dulbecco's modified Eagle's medium (DMEM) containing 10% fetal bovine serum, 2 mM glutamine, penicillin (100 U/ml), and streptomycin ([…]) at 37° C. in air with 5% CO2. Cells were plated at a density of 5×10^4 cells/cm^2 and cultured under normal conditions for 24 hours. Cells were transfected with FLAG®-tagged wild-type VLCAD or FLAG®-tagged C238A VLCAD with Lipofectamine® 2000 reagent (Life Technologies) according to the protocol provided by the manufacturer. […]

In experiment [3] the target is T3, wild-type VLCAD (Mus musculus, UniProt P50544).
T3 construct: 3xFLAG (C); host or cells: Hepa 1 to 6 cells (mouse hepatocytes)
T3 sequence (P50544 42-656): T1 sequence (P50544 42-656)
Kind of experiment: Hepa 1 to 6 cells expressing FLAG-tagged wild-type VLCAD. It is filed as cell-based. The settings on record: 250 mM GSNO for 30 minutes. As for the experimental part:
Hepa 1 to 6 cells were grown in Dulbecco's modified Eagle's medium (DMEM) containing 10% fetal bovine serum, 2 mM glutamine, penicillin (100 U/ml), and streptomycin ([…]) at 37° C. in air with 5% CO2. Cells were plated at a density of 5×10^4 cells/cm^2 and cultured under normal conditions for 24 hours. Cells were transfected with FLAG®-tagged wild-type VLCAD or FLAG®-tagged C238A VLCAD with Lipofectamine® 2000 reagent (Life Technologies) according to the protocol provided by the manufacturer. Forty-eight hours after transfection, the growth medium was replaced with serum-free DMEM, and […] freshly prepared GSNO was added for 30 minutes, after which the cells were extensively washed with PBS. Cell lysates were obtained immediately or 60, 120, and 240 minutes after the removal of GSNO. The samples were protected from UV light exposure. Lysates were assayed for protein concentration, and equal amounts of protein per sample were used for organic mercury-assisted capture.
Additional evidence for the functional consequences of S-nitrosylation of VLCAD was obtained in mouse hepatocytes transiently expressing wild-type VLCAD or a point mutant that could not be S-nitrosylated (C238A). […] Upon removal of GSNO from the media and extensive washing, both the abundance of S-nitrosylated VLCAD and the enzymatic-specific activity declined over time (FIGS. 4A and 4B).

Experiment [4] has as its system ob/ob mice. Description: Liver and serum triglycerides and liver histology in ob/ob mice. It is filed as in vivo, mouse. From the text: Formalin-fixed liver sections were stained with Trichrome Stain Kit (Sigma) according to the manufacturer's instructions. Triglycerides were extracted from liver according to the Folch method (Folch et al. (1957) J. Biol. Chem., 226:497-509). Serum and liver triglyceride concentrations were quantified with a triglyceride quantification kit following the manufacturer's instructions (Abcam). Leptin-deficient mice develop liver steatosis spontaneously under normal chow diet starting at 4 to 5 weeks of life that is characterized by a diminished rate of palmitate oxidation and accumulation of fat droplets in the form of triglycerides within the hepatocytes (Brix et al. (2002) Mol. Genet. Metab., 75:219-226; de Oliveira et al. (2008) J. Am. Coll. Nutr., 27:299-305). […] This significant reduction in the rate of palmitoyl-CoA oxidation indicated a deficiency in mitochondrial β-oxidation of fatty acids. […] GSNO was used to deliver nitric oxide equivalents because of the extensive use of this pharmacological agent in cellular models to modify proteins by S-nitrosylation despite limited cellular permeability (Hara et al. (2005) Nat. Cell Biol., 7:665-674; Chung et al. (2004) Science 304:1328-1331). […] Moreover, the restoration of palmitoyl-CoA oxidation in GSNO-injected ob/ob mice was associated with a significant reduction of the concentration of liver triglycerides.

For experiment [5], the target named is T1, VLCAD. Particulars: liver homogenates.
Experiment [6] addresses T1, VLCAD.

As to `N[C@@H](CCC(=O)N[C@@H](CSN=O)C(=O)NCC(=O)O)C(=O)O` [GSNO, S-nitrosoglutathione], in experiment [1], the “fraction of VLCAD molecules in liver S-nitrosylated” value is reported as 25±3%. In addition, in experiment [2], the “S-nitrosylation of C238A VLCAD” value is “not S-nitrosylated” and the “basal activity of C238A VLCAD” value was “did not change”. Also, in experiment [3], the “S-nitrosylated fraction of wild-type VLCAD” value amounted to 27±3% and the VLCAD-specific activity result is recorded as “fivefold increase”. Also, in experiment [4] (vs PBS-injected), the “fat deposits in liver slices (histology)” value is on record as “fewer fat deposits” and the liver triglyceride concentration entry was “significantly lowered”. The serum triglyceride concentrations result in experiment [4] (vs wild-type and PBS-treated) is on record as “similar”. In experiment [5], the “apparent KM of PBS-injected ob/ob mice relative to GSNO-injected ob/ob mice” value is recorded as “more than fivefold higher”. Besides, the “Vmax of VLCAD” value in experiment [5] (vs wild-type and PBS-injected ob/ob mice) is recorded as “similar”. Also, the “S-nitrosylation of VLCAD” value in experiment [6] (eNOS-/- liver homogenates treated ex vivo) is “readily modified ex vivo at cysteine residue Cys238”. In addition, in experiment [6] (eNOS-/- liver homogenates treated ex vivo (5 μM, 30 minutes)), the “KM for VLCAD enzymatic activity vs untreated homogenate” value is recorded as “increased five-fold”.

The values are drawn from patent US10137103B2, “Compositions and methods for the treatment of fatty acid metabolism disorders” (The Children's Hospital of Philadelphia, priority 2015, dated 2018).
